# From patent US9566262B2, “Itch suppression by fucoxanthin” (THE RITSUMEIKAN TRUST, priority 2015, dated 2017)
# Entries after “also recorded” stand apart in the source; their conditions may differ.
# Columns and labels:
# filaggrin = test: Semi-quantitative immunoblot of skin proteins of NC/Nga mice; assay type: in vivo; details: topical treatment for 5 weeks, vs Vaseline
# Description: (§1) The immunoblot analysis was performed according to the method described in Kosaka, T. et al. (supra). Mice skin proteins were analyzed by SDS-10% polyacrylamide gel electrophoresis. The blots were incubated with a rabbit anti-filaggrin antibody (Santa Cruz Biotechnology, Inc., Santa Cruz, Calif.), a rabbit anti-actin antibody (Santa Cruz Biotechnology, Inc., Santa Cruz, Calif.) or a rabbit anti-loricrin antibody (Covance, Berkeley, Calif.), and then reacted with a horseradish peroxidase-conjugated anti-rabbit IgG or anti-donkey IgG (Santa Cruz Biotechnology, Inc.).
# loricrin = test: as above; assay type: in vivo; details: topical treatment for 5 weeks, vs Vaseline
# Description: as §1
# NC/Nga mice [1] = test: Transdermal water loss (TEWL) in the skin of NC/Nga mice; assay type: in vivo; details: topical application plus PiCl, at 5 weeks, vs Vaseline
# Description: Transdermal water loss (TEWL) in the skin of the mice treated with fucoxanthin was also measured and compared with that in the skin of the mice treated with tacrolimus.
# GATA-luc = test: Luciferase reporter assay in HEK293 cells; assay type: cell-based; details: HEK293, treated 3 hours after transfection for 48 hours, vs DMSO (fucoxanthin 0.1, 1, 10 μM)
# From the text: The plasmids pGL3-Cebpα promoter-luc and pGL3-Mitf1 promoter-luc were provided by Dr. Hua Huang (University of Colorado school, Denver, USA). The plasmid NF-κB-luc was purchased from Agilent Technologies (Santa Clara, Calif.). The GATA-responsive reporter vector was provided by Dr. Ishijima (Takasaki University of Health and welfare, Gunma, Japan). Three GATA motifs from mouse α-1 globulin gene (5′-TGATAA-3′) were tandemly inserted into Sma I site of pRBGP3. HDC promoter was provided by Dr. Ootsu (Tohoku University school of Medicine, Sendai, Japan) and cloned into Kpn I-Hind III site of pGL4.10 (Hdc promoter-luc). The reporter assay was performed according to the method described in Kanatani, N. et al. Briefly, HEK293 cells were transfected with each of the luciferase constructs (0.2 μg) or pRL-CMV (Promega, Madison, Wis.) (0.001 μg). At 3 hours after transfection, the cells were treated with fucoxanthin (0.1 μM, 1 μM or 10 μM) or DMSO for 48 hours and reporter assay was performed using Dual-Luciferase® Reporter Assay System (Promega). Luciferase activity was measured using luminometer model TD20/20n (Turner BioSystems, Sunnyvale, Calif.) and normalized to Renilla luciferase activity expressed by CMV promoter.
# GATA-reporter assay was performed using HEK293 cells expressing GATA-luc prepared in Example 8, in the same manner as described in Example 8 except using various carotenoids (fucoxanthin, astaxanthin, lycopene, β-carotene or retinoic acid) in place of fucoxanthin.
# NC/Nga mice [2] = test: Serum IgE content by ELISA in NC/Nga mice; assay type: in vivo; details: topical application for 5 weeks, PiCl-sensitized, vs Vaseline
# From the text: NC/Nga mice (5 weeks old, female) were purchased from Japan SLC, Inc. […] On day 12, day 19, day 26 and day 33 after starting application of Vaseline or fucoxanthin, 0.8% picryl chloride (PiCl) was further applied to the back skin of the mice. The behaviors of the mice were observed by video monitoring. On day 34 after starting application of Vaseline or fucoxanthin, bromodeoxyuridine (BrdU, Nacalai Tesque) (0.[…] weight) was intraperitoneally administered to the mice. At 5 weeks after starting application of Vaseline or fucoxanthin, the time each mouse spent for scratching behavior in 10 minutes was measured by video monitoring. Then, the mice were sacrificed and the auricular lymph node, blood and skin were obtained. Serum IgE content was determined by enzyme-linked immunosorbent assay (ELISA) using Mouse IgE Assay Kit (Morinaga Institute of Biological Science, Inc.). […] BrdU uptake was determined by ELISA using Cell Proliferation ELISA, BrdU (Colorimetric) (Roche Diagnostics K.K.). […] Also, serum IgE levels and swelling of the auricular lymph nodes of the mice were determined in the same manner as described in Example 2.
# NC/Nga mice [3] = test: Scratching behavior (itch) in PiCl-sensitized NC/Nga dermatitis model mice, video monitoring; assay type: in vivo
# From the text: On day 12, day 19, day 26 and day 33 after starting application of Vaseline or fucoxanthin, 0.8% picryl chloride (PiCl) was further applied to the back skin of the mice. The behaviors of the mice were observed by video monitoring. On day 34 after starting application of Vaseline or fucoxanthin, bromodeoxyuridine (BrdU, Nacalai Tesque) ([…]) was intraperitoneally administered to the mice. At 5 weeks after starting application of Vaseline or fucoxanthin, the time each mouse spent for scratching behavior in 10 minutes was measured by video monitoring. Then, the mice were sacrificed and the auricular lymph node, blood and skin were obtained. Serum IgE content was determined by enzyme-linked immunosorbent assay (ELISA) using Mouse IgE Assay Kit (Morinaga Institute of Biological Science, Inc.). […] BrdU uptake was determined by ELISA using Cell Proliferation ELISA, BrdU (Colorimetric) (Roche Diagnostics K.K.).
# In the same manner as described in Example 2, Vaseline, fucoxanthin or tacrolimus and PiCl were applied to NC/Nga mice. At 5 weeks after starting application of fucoxanthin or tacrolimus, the time spent for scratching behavior per 10 minutes in the mice treated with fucoxanthin was measured and compared to that in the mice treated with tacrolimus. […]
# NC/Nga mice [4] = test: Clinical symptoms of dermatitis in PiCl-sensitized NC/Nga mice; assay type: in vivo; details: topical application plus PiCl, at 5 weeks
# Description: Next, we examined the effects of fucoxanthin and astaxanthin on clinical symptoms of dermatitis in NC/Nga mice. In the same manner as described in Example 2, fucoxanthin or astaxanthin and PiCl were applied to NC/Nga mice. […] In the same manner as described in Example 2, Vaseline, fucoxanthin or tacrolimus and PiCl were applied to NC/Nga mice. […] Also, serum IgE levels and swelling of the auricular lymph nodes of the mice were determined in the same manner as described in Example 2.
compound,measurement,setting,value
CC(=O)O[C@H]1CC(C)(C)C(=C=C/C(C)=C/C=C/C(C)=C/C=C/C=C(C)/C=C/C=C(\C)C(=O)C[C@@]23O[C@]2(C)C[C@@H](O)CC3(C)C)[C@](C)(O)C1 [fucoxanthin],filaggrin expression level in skin (western blot),filaggrin,elevated
same,loricrin expression level in skin (western blot),loricrin,elevated
same,transdermal water loss (TEWL),NC/Nga mice [1],remarkably inhibited moisture evaporation
same,GATA-luc expression,GATA-luc,downregulated
same,serum IgE level,NC/Nga mice [2],neither ear swelling (FIG. 9A) nor serum IgE level (FIG. 9B) were affected; also recorded: did not vary
same,time spent for scratching behavior in 10 minutes,"NC/Nga mice [3]; applied daily to back skin (0.1% (w/w) fucoxanthin in Vaseline), PiCl sensitization, at 5 weeks, vs Vaseline-applied mice",attenuated; also recorded: remarkably shorter
same,speed of action on itch compared with tacrolimus,"NC/Nga mice [3]; topical application, PiCl-sensitized NC/Nga mice, scratching time per 10 minutes",faster-acting than tacrolimus
same,clinical symptoms of dermatitis (AD symptoms),NC/Nga mice [4],remarkably improved; also recorded: almost completely did; also recorded: ameliorated clinical symptom of dermatitis
